Measurements from US20240425517A1, “NOVEL COMPOUND FOR DEGRADATION OF TARGET PROTEIN OR POLYPEPTIDE BY POLYUBIQUITINATION” (PRAZER THERAPEUTICS INC., priority 2021, published 2024).

Molecular target: T1, BRD4 proteins (Homo sapiens, UniProt O60885)
T1 construct: endogenous in cells; host or cells: MM.1S
Assay: Degradation of BRD4 protein in MM.1S cell lines (Western blot densitometry)
Type: cell-based
Conditions: MM.1S cells, 10 μM, 24 hours
Method: To confirm that the compounds (BRD4 degraders) of Preparation Examples I′ to IV′ reduce the amount of BRD4 proteins, experiments were performed using MM.1S cell lines, which are B cells derived from the blood of multiple myeloma patients.
Specifically, the MM.1S cells were cultured in RPMI-1640 medium supplemented with 10% fetal bovine serum and Penicillin/Streptomycin (100 U/mL), transferred to a 6-well plate, and after 24 hours, the BRD4 degraders were diluted in the culture medium and the cells were treated with 10 μM each. After treatment, the cells were incubated in a C02 incubator for 24 hours. Through protein immunoblotting (Western Blot), the degrading capacity of each compound against BRD4 proteins in cells was confirmed. After cell culture was completed according to the experimental conditions, the cells were collected and centrifuged at 1,800 rpm for 3 minutes. The cells in the precipitate were lysed with RIPA (25 mM Tris-HCl pH 7.6, 150 mM NaCl, 1% NP-40, 1% sodium deoxycholate, 0.1% SDS, 1× Protease Inhibitor Cocktail), 5× sample buffer was added, and then heated at 100° C. for 15 minutes. The prepared sample was electrophoresed with sodium dodecyl sulfate poly acrylamide gel electrophoresis (SDS-PAGE), and then the proteins in the gel were transferred to a PVDF membrane using Trans-Blot Turbo. The membrane was treated with a 5% bovine serum albumin (BSA) solution and blocked at room temperature for 2 hours, and then BRD4 and R-actin antibodies were diluted in the 5% BSA solution to react with the membrane at 4° C. overnight. After washed with PBST (0.5% Tween20) 5 times, horse radish peroxidase (HRP)-conjugated secondary antibodies were diluted in PBST to react at room temperature for 2 hours, and then washed again with a PBST solution 5 times. After enzyme-substrate reaction was carried out using a HRP substrate, a signal was measured with chemi-doc equipment, and the densitometry of a band corresponding to the BRD4 protein detected in the Preparation Example Compounds was quantitatively analyzed. The case when the degrading capacity of each BRD4 degrader was reduced by less than 40% is indicated as +, the case when the degrading capacity was reduced by 40% to 70% (exclusive of 70) is indicated as ++, the case when the degrading capacity was reduced by 70% or more is indicated as +++ in Tables 16 to 19 below. As shown in the following Tables, it was confirmed that the compounds of Preparation Examples I′ to IV′ according to the present invention have excellent degrading capacity.

Cc1sc2c(c1C)C(c1ccc(Cl)cc1)=N[C@@H](CC(=O)NCCCCC(=O)Nc1cccc(C#CCN)c1)c1nnc(C)n1-2.Cl [4-164′, (S)—N-(3-(3-aminoprop-1-yn-1-yl)phenyl)-5-(2-(4-(4-chlorophenyl)-2,3,9-trimethyl-6H-thieno[3,2-f][1,2,4]triazolo[4,3-a][1,4]diazepin-6-yl)acetamido)pentanamide hydrochloride]
BRD4 degrading capacity (%): ++ (the degrading capacity was reduced by 40% to 70% (exclusive of 70))

Cc1sc2c(c1C)C(c1ccc(Cl)cc1)=N[C@@H](CC(=O)NCCCCCC(=O)Nc1ccc(C#CCN)cc1)c1nnc(C)n1-2.Cl [4-165′, (S)—N-(4-(3-aminoprop-1-yn-1-yl)phenyl)-6-(2-(4-(4-chlorophenyl)-2,3,9-trimethyl-6H-thieno[3,2-f][1,2,4]triazolo[4,3-a][1,4]diazepin-6-yl)acetamido)hexanamide hydrochloride]
BRD4 degrading capacity (%): +++ (the degrading capacity was reduced by 70% or more)

Cc1sc2c(c1C)C(c1ccc(Cl)cc1)=N[C@@H](CC(=O)NCCCNC(=O)c1ccc(C#CCN)o1)c1nnc(C)n1-2.Cl [4-166′]
BRD4 degrading capacity (%): +++ (the degrading capacity was reduced by 70% or more)

Cc1sc2c(c1C)C(c1ccc(Cl)cc1)=N[C@@H](CC(=O)NCCCCCNC(=O)c1ccc(C#CCN)o1)c1nnc(C)n1-2.Cl [4-167′, (S)-5-(3-aminoprop-1-yn-1-yl)-N-(5-(2-(4-(4-chlorophenyl)-2,3,9-trimethyl-6H-thieno[3,2-f][1,2,4]triazolo[4,3-a][1,4]diazepin-6-yl)acetamido)pentyl)furan-2-carboxamide hydrochloride]
BRD4 degrading capacity (%): ++ (the degrading capacity was reduced by 40% to 70% (exclusive of 70))

Cc1sc2c(c1C)C(c1ccc(Cl)cc1)=N[C@@H](CC(=O)NCC#Cc1ccc(C#CCN)nc1)c1nnc(C)n1-2.Cl [4-179′, (S)—N-(3-(6-(3-aminoprop-1-yn-1-yl)pyridin-3-yl)prop-2-yn-1-yl)-2-(4-(4-chlorophenyl)-2,3,9-trimethyl-6H-thieno[3,2-f][1,2,4]triazolo[4,3-a][1,4]diazepin-6-yl)acetamide hydrochloride]
BRD4 degrading capacity (%): + (the degrading capacity of each BRD4 degrader was reduced by less than 40%)

Cc1sc2c(c1C)C(c1ccc(Cl)cc1)=N[C@@H](CC(=O)NCC#Cc1ccc(C#CCON)s1)c1nnc(C)n1-2.Cl [4-223′, (S)—N-(3-(5-(3-(aminooxy)prop-1-yn-1-yl)thiophen-2-yl)prop-2-yn-1-yl)-2-(4-(4-chlorophenyl)-2,3,9-trimethyl-6H-thieno[3,2-f][1,2,4]triazolo[4,3-a][1,4]diazepin-6-yl)acetamide hydrochloride]
BRD4 degrading capacity (%): ++ (the degrading capacity was reduced by 40% to 70% (exclusive of 70))

Cc1sc2c(c1C)C(c1ccc(Cl)cc1)=N[C@@H](CC(=O)NCCCCCCCCCNC(=O)c1ccc(C#CCN)o1)c1nnc(C)n1-2.Cl [4-225′, (S)-5-(3-aminoprop-1-yn-1-yl)-N-(9-(2-(4-(4-chlorophenyl)-2,3,9-trimethyl-6H-thieno[3,2-f][1,2,4]triazolo[4,3-a][1,4]diazepin-6-yl)acetamido)nonyl)furan-2-carboxamide hydrochloride]
BRD4 degrading capacity (%): +++ (the degrading capacity was reduced by 70% or more)

Cc1sc2c(c1C)C(c1ccc(Cl)cc1)=N[C@@H](CC(=O)N1CCN(c3ccc(C#CCN)cc3)CC1)c1nnc(C)n1-2.Cl [4-226′, (S)-1-(4-(4-(3-aminoprop-1-yn-1-yl)phenyl)piperazin-1-yl)-2-(4-(4-chlorophenyl)-2,3,9-trimethyl-6H-thieno[3,2-f][1,2,4]triazolo[4,3-a][1,4]diazepin-6-yl)ethan-1-one hydrochloride]
BRD4 degrading capacity (%): +++ (the degrading capacity was reduced by 70% or more)

Cc1sc2c(c1C)C(c1ccc(Cl)cc1)=N[C@@H](CC(=O)N1CCN(C(=O)c3ccc(C#CCN)o3)CC1)c1nnc(C)n1-2.Cl [4-227′, (S)-1-(4-(5-(3-aminoprop-1-yn-1-yl)furan-2-carbonyl)piperazin-1-yl)-2-(4-(4-chlorophenyl)-2,3,9-trimethyl-6H-thieno[3,2-f][1,2,4]triazolo[4,3-a][1,4]diazepin-6-yl)ethan-1-one hydrochloride]
BRD4 degrading capacity (%): ++ (the degrading capacity was reduced by 40% to 70% (exclusive of 70))

COC(=O)c1ccc(NC(=O)CCCNC(=O)C[C@@H]2N=C(c3ccc(Cl)cc3)c3c(sc(C)c3C)-n3c(C)nnc32)cc1C#CCN.Cl [4-228′]
BRD4 degrading capacity (%): +++ (the degrading capacity was reduced by 70% or more)

Cc1sc2c(c1C)C(c1ccc(Cl)cc1)=N[C@@H](CC(=O)NCCCCCCCCNC(=O)c1ccc(C#CCN)o1)c1nnc(C)n1-2.Cl [4-235′]
BRD4 degrading capacity (%): ++ (the degrading capacity was reduced by 40% to 70% (exclusive of 70))

CCOC(=O)c1ccc(NC(=O)CCCNC(=O)C[C@@H]2N=C(c3ccc(Cl)cc3)c3c(sc(C)c3C)-n3c(C)nnc32)cc1C#CCN.Cl [5-1′, ethyl (S)-2-(3-aminoprop-1-yn-1-yl)-4-(4-(2-(4-(4-chlorophenyl)-2,3,9-trimethyl-6H-thieno[3,2-f][1,2,4]triazolo[4,3-a][1,4]diazepin-6-yl)acetamido)butanamido)benzoate hydrochloride]
BRD4 degrading capacity (%): +++ (the degrading capacity was reduced by 70% or more)

Cc1sc2c(c1C)C(c1ccc(Cl)cc1)=N[C@@H](CC(=O)NCCCC(=O)Nc1ccc(C(=O)OC(C)C)c(C#CCN)c1)c1nnc(C)n1-2.Cl [5-2′, isopropyl (S)-2-(3-aminoprop-1-yn-1-yl)-4-(4-(2-(4-(4-chlorophenyl)-2,3,9-trimethyl-6H-thieno[3,2-f][1,2,4]triazolo[4,3-a][1,4]diazepin-6-yl)acetamido)butanamido)benzoate hydrochloride]
BRD4 degrading capacity (%): ++ (the degrading capacity was reduced by 40% to 70% (exclusive of 70))

COC(=O)c1ccc(NC(=O)CCNC(=O)C[C@@H]2N=C(c3ccc(Cl)cc3)c3c(sc(C)c3C)-n3c(C)nnc32)cc1C#CCN.Cl [5-4′, methyl (S)-2-(3-aminoprop-1-yn-1-yl)-4-(3-(2-(4-(4-chlorophenyl)-2,3,9-trimethyl-6H-thieno[3,2-f][1,2,4]triazolo[4,3-a][1,4]diazepin-6-yl)acetamido)propanamido)benzoate hydrochloride]
BRD4 degrading capacity (%): ++ (the degrading capacity was reduced by 40% to 70% (exclusive of 70))

COC(=O)c1ccc(NC(=O)CCCCNC(=O)C[C@@H]2N=C(c3ccc(Cl)cc3)c3c(sc(C)c3C)-n3c(C)nnc32)cc1C#CCN.Cl [5-5′, methyl (S)-2-(3-aminoprop-1-yn-1-yl)-4-(5-(2-(4-(4-chlorophenyl)-2,3,9-trimethyl-6H-thieno[3,2-f][1,2,4]triazolo[4,3-a][1,4]diazepin-6-yl)acetamido)pentanamido)benzoate hydrochloride]
BRD4 degrading capacity (%): ++ (the degrading capacity was reduced by 40% to 70% (exclusive of 70))

COC(=O)c1ccc(NC(=O)CCCCCNC(=O)C[C@@H]2N=C(c3ccc(Cl)cc3)c3c(sc(C)c3C)-n3c(C)nnc32)cc1C#CCN.Cl [5-6′, methyl (S)-2-(3-aminoprop-1-yn-1-yl)-4-(6-(2-(4-(4-chlorophenyl)-2,3,9-trimethyl-6H-thieno[3,2-f][1,2,4]triazolo[4,3-a][1,4]diazepin-6-yl)acetamido)hexanamido)benzoate hydrochloride]
BRD4 degrading capacity (%): ++ (the degrading capacity was reduced by 40% to 70% (exclusive of 70))

COC(=O)c1ccc(N2CCN(C(=O)C[C@@H]3N=C(c4ccc(Cl)cc4)c4c(sc(C)c4C)-n4c(C)nnc43)CC2)cc1C#CCN.Cl [5-7′, methyl (S)-2-(3-aminoprop-1-yn-1-yl)-4-(4-(2-(4-(4-chlorophenyl)-2,3,9-trimethyl-6H-thieno[3,2-f][1,2,4]triazolo[4,3-a][1,4]diazepin-6-yl)acetyl)piperazin-1-yl)benzoate hydrochloride]
BRD4 degrading capacity (%): + (the degrading capacity of each BRD4 degrader was reduced by less than 40%)

Cc1sc2c(c1C)C(c1ccc(Cl)cc1)=N[C@@H](CC(=O)NCCCC(=O)Nc1ccc(C#CCN)c(CO)c1)c1nnc(C)n1-2.Cl [5-8′, (S)—N-(4-(3-aminoprop-1-yn-1-yl)-3-(hydroxymethyl)phenyl)-4-(2-(4-(4-chlorophenyl)-2,3,9-trimethyl-6H-thieno[3,2-f][1,2,4]triazolo[4,3-a][1,4]diazepin-6-yl)acetamido)butanamide hydrochloride]
BRD4 degrading capacity (%): ++ (the degrading capacity was reduced by 40% to 70% (exclusive of 70))
